The values that follow come from ChEMBL document CHEMBL1201862, “PubChem BioAssay data set” (2004).

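Method: 48-hour compound exposure of cells in 96-well plates, five concentrations, linear interpolation of endpoints. GI50 = concentration required for 50% inhibition of growth.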 Calls of active or inactive are those of the source. No stated cut-off is given here; in the data, active = GI50 up to about 1.1 µM and inactive = higher.

Some test systems named below: SF-539; HL-60; MCF7; PC-3; SN12C; U-251; IGROV-1; A498; SK-MEL-2; HCT-15; K562; A549; Malme-3M; SK-OV-3; NCI/ADR-RES; MDA-MB-231; UO-31; NCI-H226; TK-10.
What all share (test): NCI tumour cell line growth inhibition, 48 h

For the compound `O=C1C(Cl)=C(N2CCN(c3ccccn3)CC2)C(=O)c2ncccc21`, the GI50 in the experiment with SF-539 is 2.05 µM (inactive); in the experiment on HL-60, 0.668 µM (active); with MCF7, 1.67 µM (inactive); in the experiment on PC-3, 2.8 µM (inactive); in the experiment on SN12C, 2.61 µM (inactive); with U-251 it was 4.38 µM (inactive). Besides, the GI50 with IGROV-1 was 2.64 µM (inactive); with A498 it was 11.3 µM (inactive); with SK-MEL-2, 1.87 µM (inactive); with HCT-15, 1.66 µM; in the experiment on K562, 1.33 µM (inactive); in the experiment with A549 it was 6.56 µM (inactive). The GI50 in the experiment on Malme-3M is 1.75 µM (inactive); with SK-OV-3, 7 µM (inactive); in the experiment on NCI/ADR-RES, 2.33 µM (inactive); in the experiment on MDA-MB-231, 1.69 µM (inactive); in the experiment on UO-31 it was 1.77 µM (inactive); with NCI-H226 it was 5.68 µM (inactive). In addition, the GI50 with TK-10 was 3.97 µM (inactive).

Take `C[C@H](CCc1nc(C#N)c(N)o1)[C@H]1CC[C@H]2[C@@H]3[C@@H](O)CC4C[C@@H](O)CC[C@]4(C)[C@H]3C[C@@H](O)[C@]12C` (stereo partly specified): the GI50 in the experiment on SF-539 is 17.9 µM (inactive); with HL-60, 3.62 µM (inactive); in the experiment with MCF7 it was 33.1 µM (inactive); in the experiment with PC-3 it was 9.95 µM (inactive); with SN12C it was 20.6 µM (inactive); with U-251 it was 20.7 µM (inactive). For the same compound, the GI50 in the experiment on IGROV-1 is 10.2 µM (inactive); in the experiment with A498, 39.1 µM (inactive); in the experiment on SK-MEL-2, 19.9 µM (inactive); with HCT-15, 48.3 µM; in the experiment on K562, 23.1 µM (inactive); with A549 it was 29.4 µM (inactive). The GI50 is 7.38 µM (inactive) in the experiment with Malme-3M; 37.5 µM (inactive) with SK-OV-3; > 78.9 µM (inactive) with NCI/ADR-RES; 25.6 µM (inactive) in the experiment on MDA-MB-231; 20.6 µM (inactive) in the experiment on UO-31; 21.2 µM (inactive) in the experiment on NCI-H226. Moreover, the GI50 in the experiment on TK-10 was 24.2 µM (inactive).

`C/C(=N\NC(=S)NC(C)C)c1nc2cccnc2[nH]1`: the GI50 in the experiment with SF-539 was > 37.9 µM (inactive); in the experiment on HL-60 it was 8.93 µM (inactive); in the experiment on MCF7 it was 21.9 µM (inactive); in the experiment on PC-3, 27.9 µM (inactive); in the experiment with SN12C, > 56.5 µM (inactive); with U-251, 21.3 µM (inactive). Further, the GI50 was 19.8 µM (inactive) in the experiment on IGROV-1; > 47.6 µM (inactive) with A498; 18.7 µM (inactive) in the experiment on SK-MEL-2; 11.3 µM in the experiment with HCT-15; 4.48 µM (inactive) with K562; 31.5 µM (inactive) with A549. For the same compound, the GI50 was 33.9 µM (inactive) in the experiment with Malme-3M; 12.7 µM (inactive) in the experiment on SK-OV-3; 40.5 µM (inactive) in the experiment on NCI/ADR-RES; > 26.7 µM (inactive) in the experiment with MDA-MB-231; 3.78 µM (inactive) with UO-31; 9.25 µM (inactive) in the experiment with NCI-H226. In the experiment on TK-10, the GI50 was 21.3 µM (inactive).

As to `Cc1cc(=O)oc2cc(OC(=O)N(CCCl)CCCl)ccc12`, the GI50 in the experiment with SF-539 is > 100 µM (inactive); in the experiment on HL-60, > 100 µM (inactive); in the experiment with MCF7, > 100 µM (inactive); in the experiment on PC-3, 46.8 µM (inactive); in the experiment with SN12C it was > 100 µM (inactive); in the experiment on U-251, > 100 µM (inactive). Moreover, the GI50 is 94.4 µM (inactive) in the experiment with IGROV-1; > 100 µM (inactive) in the experiment with A498; > 100 µM (inactive) in the experiment on SK-MEL-2; 77.6 µM with HCT-15; 68.5 µM (inactive) in the experiment on K562; > 100 µM (inactive) with A549. The GI50 with Malme-3M was > 100 µM (inactive); with SK-OV-3, > 100 µM (inactive); in the experiment with NCI/ADR-RES, 99.1 µM (inactive); in the experiment with MDA-MB-231, > 100 µM (inactive); in the experiment on UO-31, > 100 µM (inactive); with NCI-H226 it was > 100 µM (inactive). Also, the GI50 in the experiment with TK-10 was > 100 µM (inactive).
